Source: US11826402B2, “Combination therapy involving antibodies against claudin 18.2 for treatment of metastatic pancreatic adenocarcinoma” (Astellas Pharma Inc., priority 2013, dated 2023)

Key:
Panc05.04 = assay: IMAB362-mediated ADCC assay (luciferase, human PBMCs, E:T 40:1); type: cell-based
Procedure: For ADCC assays pancreatic cancer cell lines were transiently transfected with luciferase RNA. This luciferase RNA (pST1-luc2mut-2 hBgUTR-A121-EciI vector (pST1-109)) was produced with an ARCA cap and dissolved in H2O. RNA was stored in 22 μl aliquots at −80° C. For all pancreas cell lines the optimal electroporation conditions were determined resulting in highest transfection rates and viability of the cells. In each assay cells were detached with PBS/5 mM EDTA and 2.5×10^6 cells dissolved in 250 μl X-Vivo were mixed in ice-cold cuvettes with 10 μg RNA. Cells were immediately electroporated (GenePulser Xcell, Biorad) and resuspended in pre-warmed Assay-medium adjusting the cells to 5×10^5 cells/ml. Tested electroporation conditions were for all cell lines: • EP1: 250 V, 475 μF • EP2: 200 V, 300 μF • EP3: 150 V, 300 μF • EP4: 200 V, 400 μF • EP5: 250 V, 950 μF • Control: 0 V, 0 μF
The viability of the cells was determined directly after electroporation using CASY or by staining cells with Trypan blue and determining the percentage of dead cells in the Neubauer chamber. Cells were seeded in quadruplicates in white 96-well plates (2.5×10^4 cells/well) and incubated for 24 h. Subsequently, luciferase activity was measured in a luminometer (Tecan Infinite200) after addition of luciferin mix for 90 min. Transfection was successful and consequently ADCC measurable, if RLU values >1.000 were obtained.
Pancreatic cancer target cells were seeded two days in advance in flasks to obtain 80-90% confluent cultures on the day ADCC started. […] NUGC-4 sub 10cH11 subE10 Luci #2 cells (8000 cells/well) were seeded in addition as positive controls in all assays. Cells were cultivated for 4-6 h before addition of antibody and purified PBMCs. PBMCs were prepared from fresh human buffy coat obtained from healthy donors. About 3× 20-25 ml blood was diluted (1:2) with PBS and carefully layered on 4×15 ml Ficol-Paque Plus (GE Healthcare) in 50 ml Falcon tubes. Gradients were centrifuged (25 min, 700 g). After centrifugation, peripheral blood mononuclear cells (PBMC) were collected from the interphase, washed in PBS/2 mM EDTA, centrifuged (5 min, 468 g), again resuspended in PBS/2 mM EDTA and centrifuged (10 min, 208 g) to remove the platelets. The pellets were resuspended in 50 ml PBS/2 mM EDTA and cells were counted. PBMCs were centrifuged (5 min, 468 g) and resuspended in X-Vivo-15 culture medium at a concentration of 1.6×10^7 cells/ml for addition to the pancreas cells and 1.28×10^7 cells/ml for addition to the NUGC-4 sub 10cH11 subE10 Luci #2 cells.
Of each dilution 25 μl was added in quadruplicates to the target cells. PBS without antibodies was added in the medium and lysis control wells. Subsequently, 25 μl PBMCs were added to each well (E:T ratio=40:1) and plates were incubated for 24 h±1 h at 37° C., 5% CO2.
The next day, 10 μl 8% Triton X100/PBS solution was added to the lysis control wells and 10 μl PBS in all other wells. Finally, 50 μl freshly prepared luciferin stock solution was added (160 mM HEPES, 1×PBS, 3.84 mg/ml D-Luciferin (BD Biosciences)) to each well and plates were incubated for 80 min at RT in the dark. Luminescence resulting from the oxidation of […] by the luciferase of viable cells was measured using a microplate-reader (Infinite200, Tecan, Switzerland). Percentage of cellular cytotoxicity was calculated using the following formula: Specific killing (%)=100−[(RLUsample−RLUtriton)/(RLUmedium ctrl−RLUtriton)×100] […]

KATO-III = assay: Apoptosis by cross-linking of IMAB362 (TUNEL assay); type: cell-based, human; details: within 18-42 hours
Procedure: (§1) The apoptotic assay based on DNA fragmentation was performed as follows. Treated cells (adherent and floating) were fixed in 70% icecold EtOH overnight. After washing, 10^6 fixed cells were incubated with terminal deoxynucleotidyl transferase enzyme (TdT) and FITC-dUTP for 90 min at 37° C. to label DNA breaks. Cells were rinsed, incubated in RNase A/propidium iodide in the dark for 30 min at room temperature to stain total DNA, then analyzed by flowvcytometry. Cell doublets and clumps were eliminated from the analysis by gating.
(§2) The magnitude of apoptosis correlates with the dose of the antibody and level of target expression on the cancer cell. Treatment with gemcitabine leads to cell cycle arrest of tumor cells followed by apoptotic cell death.

NUGC-4 = assay: as above; type: cell-based, human; details: within 18-42 hours
Procedure: as §1, §2

SW1990 = assay: IMAB362-mediated ADCC assay; type: cell-based, human; details: at least 2 donors
DANG = assay: Cell cycle analysis; type: cell-based, human; details: 2 days
Procedure: The area of each bar is divided to indicate the percentage of cells in G0/G1, S and G2 phase.
Cells were plated in six-well plates, and 5-6 hours later chemotherapeutic agents were added for either 24 h 48 h or 3 days. Cells floating in the medium were combined with the adherent cell layer, which was trypsinized. Cells were washed. Either cell cycle analysis was started directly or cell surface staining was done before as described above. Cells are resuspended in 1 ml PBS and added to 3 ml 4% PFA. After 15 min fixation of cells at room temperature cells are pelleted and washed. For RNAse treatment cells were resuspended in 200 μl RNAse (10000 U/ml) plus 0.05% Triton X-100 and incubated for 30 min at 37° C. 1 ml PBS was added and samples were centrifuged and resuspended in 200 μl PBS/PJ 50 μg/ml. At least 30 min later samples were ready to be analyzed by flow cytometry. Cell cycle phase distribution was determined using FlowJo software to analyze DNA content histograms.

Row | Molecule | ADCC killing by IMAB362 and PBMCs (Panc05.04; Panc05.04) | EC50 of effector cell-dependent killing (ADCC) (Panc05.04; Panc05.04 (pooled with DANG), PBMCs of different donors, E:T 40:1) [µg/mL] | maximum killing rate (ADCC) (Panc05.04; Panc05.04, at highest antibody concentrations) [%] | ADCC EC50 (Panc05.04; Panc05.04, at least 2 donors) [ng/mL] | ADCC Max. lysis (Panc05.04; Panc05.04, at least 2 donors) [%] | induction of apoptosis (KATO-III) | induction of apoptosis (NUGC-4) | ADCC EC50 (SW1990) | ADCC Max. lysis (SW1990) | cell cycle effect (DANG)
1 | IMAB362: chimeric IgG1 antibody directed against CLDN18.2, developed by Ganymed Pharmaceuticals AG | efficiently killed | 0.1 to 38 | ~50 | 5728.8 ± 4435.1 | 67.1 ± 6.8 | induces direct apoptosis | induces direct apoptosis | n.m. | n.m. | 
2 | Nc1ccn([C@@H]2O[C@H](CO)[C@@H](O)C2(F)F)c(=O)n1 [gemcitabine, 4-amino-1-(2-deoxy-2,2-difluoro-β-D-erythro-pentofuranosyl)pyrimidin-2(1H)-one] |  |  |  |  |  |  |  |  |  | cell cycle arrest of cells in S-Phase
